Measured values: ChEMBL document CHEMBL1130186, “Potent alpha 4 beta 1 peptide antagonists as potential anti-inflammatory agents” (J Med Chem, 1997)
*1 amine or outer side, *2 acyl side, *3 side chain or, on linkers, in order; H or OH if unused. Where a SMILES comes first, the peptide text is derived from it. Bridges are numbered along the chain shown (N, C = ends). [ ]: non-standard residue; d: D form. The star is where a group is joined. ξ: configuration not given here. X5 = O=C([C@H](Cc1c(F)c(F)c(O)c(F)c1F)N[*:1])[*:2]; X7 = O=C([C@H]1[C@@H](c2ccc(O)cc2)CCN1[*:1])[*:2]; X3 = O=C([C@H]1[C@H](c2ccc(O)cc2)CCN1[*:1])[*:2]; Fluorene(1-CO) = O=C(c1cccc2c1Cc1ccccc1-2)*; Tyr(3-Cl) = N[C@@H](Cc1ccc(O)c(Cl)c1)C(=O)O; Tyr(3-F) = N[C@@H](Cc1ccc(O)c(F)c1)C(=O)O; Tyr(3-I) = N[C@@H](Cc1ccc(O)c(I)c1)C(=O)O; Oic(3aξ,7aξ) = O=C(O)[C@@H]1CC2CCCCC2N1; mTyr = N[C@@H](Cc1cccc(O)c1)C(=O)O; X4 = O=C(c1ccc(-c2ccc(O)cc2)cc1)*; Hyp = O=C(O)[C@@H]1C[C@@H](O)CN1; Cha = N[C@@H](CC1CCCCC1)C(=O)O; Aic = NC1(C(=O)O)Cc2ccccc2C1; Chg = N[C@H](C(=O)O)C1CCCCC1; 3Amb = NCc1cccc(C(=O)O)c1; 3Abz = Nc1cccc(C(=O)O)c1; 2Abz = Nc1ccccc1C(=O)O; Inp = O=C(O)C1CCNCC1; Ava = NCCCCC(=O)O; GABA = NCCCC(=O)O; Sar = CNCC(=O)O

What was measured:
Integrin alpha-4/beta-1 [1] = target: T1, Integrin alpha-4/beta-1 (Homo sapiens, UniProt P05556+P13612); assay: Inhibition of purified alpha-4 beta-1 binding to VCAM-1 was determined in an ELISA assay.; format: protein-complex assay
T1 sequence (P05556 whole entry): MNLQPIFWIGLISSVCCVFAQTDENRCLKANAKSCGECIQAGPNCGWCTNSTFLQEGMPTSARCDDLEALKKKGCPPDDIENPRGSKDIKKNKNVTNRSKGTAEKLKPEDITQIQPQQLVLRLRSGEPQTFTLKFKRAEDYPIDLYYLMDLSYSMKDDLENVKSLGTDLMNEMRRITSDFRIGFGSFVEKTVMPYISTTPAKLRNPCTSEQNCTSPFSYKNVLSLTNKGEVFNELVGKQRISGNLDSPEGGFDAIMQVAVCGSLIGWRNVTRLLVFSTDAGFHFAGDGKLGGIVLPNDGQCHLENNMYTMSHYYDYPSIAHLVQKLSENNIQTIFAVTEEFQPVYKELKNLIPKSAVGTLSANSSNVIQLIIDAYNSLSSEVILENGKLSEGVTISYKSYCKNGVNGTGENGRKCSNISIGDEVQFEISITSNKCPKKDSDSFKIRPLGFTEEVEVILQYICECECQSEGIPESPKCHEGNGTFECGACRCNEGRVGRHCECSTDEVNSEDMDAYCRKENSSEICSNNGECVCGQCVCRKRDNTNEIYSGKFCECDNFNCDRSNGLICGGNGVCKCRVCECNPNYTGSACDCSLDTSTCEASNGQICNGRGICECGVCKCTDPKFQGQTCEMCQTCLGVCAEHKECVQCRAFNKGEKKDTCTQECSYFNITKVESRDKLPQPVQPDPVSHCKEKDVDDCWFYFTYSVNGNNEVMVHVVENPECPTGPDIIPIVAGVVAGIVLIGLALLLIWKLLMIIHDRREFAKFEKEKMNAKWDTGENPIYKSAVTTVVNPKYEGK
T1 sequence (P13612 whole entry): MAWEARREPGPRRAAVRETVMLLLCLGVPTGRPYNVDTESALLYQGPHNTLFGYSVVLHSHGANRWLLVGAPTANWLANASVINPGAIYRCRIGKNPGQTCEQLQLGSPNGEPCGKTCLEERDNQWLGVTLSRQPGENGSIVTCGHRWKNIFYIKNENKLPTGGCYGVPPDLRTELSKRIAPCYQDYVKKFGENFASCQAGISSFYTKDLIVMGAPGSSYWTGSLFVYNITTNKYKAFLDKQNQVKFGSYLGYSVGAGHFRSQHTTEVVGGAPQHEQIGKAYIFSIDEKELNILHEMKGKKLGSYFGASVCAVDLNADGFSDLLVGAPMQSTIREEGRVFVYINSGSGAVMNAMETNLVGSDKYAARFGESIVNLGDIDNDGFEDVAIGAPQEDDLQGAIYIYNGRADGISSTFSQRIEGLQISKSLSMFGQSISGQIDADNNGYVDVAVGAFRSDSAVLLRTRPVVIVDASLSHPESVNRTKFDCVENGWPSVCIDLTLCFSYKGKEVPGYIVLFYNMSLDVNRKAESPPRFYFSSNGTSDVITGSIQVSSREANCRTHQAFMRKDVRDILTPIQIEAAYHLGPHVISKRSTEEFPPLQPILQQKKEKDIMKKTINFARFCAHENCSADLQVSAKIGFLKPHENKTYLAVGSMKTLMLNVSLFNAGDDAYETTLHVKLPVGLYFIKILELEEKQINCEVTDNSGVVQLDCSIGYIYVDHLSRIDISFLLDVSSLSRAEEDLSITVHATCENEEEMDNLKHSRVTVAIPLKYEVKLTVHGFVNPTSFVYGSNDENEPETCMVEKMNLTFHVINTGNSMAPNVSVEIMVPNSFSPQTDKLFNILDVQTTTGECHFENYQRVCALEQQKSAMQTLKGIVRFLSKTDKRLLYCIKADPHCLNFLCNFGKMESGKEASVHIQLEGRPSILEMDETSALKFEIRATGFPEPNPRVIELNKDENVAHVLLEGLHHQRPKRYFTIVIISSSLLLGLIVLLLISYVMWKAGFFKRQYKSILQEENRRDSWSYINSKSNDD

Integrin alpha-4/beta-1 [2] = target: T1, Integrin alpha-4/beta-1; assay: Inhibition of fluorescently labeled alpha4-beta1 positive Ramos cells binding to immobilized VCAM-1.; format: cell-based

SMILES | IC50 (Integrin alpha-4/beta-1 [1]) [µM] | IC50 (Integrin alpha-4/beta-1 [2]) [µM]
N[C@H](Cc1ccc(O)cc1)C(=O)N[C@H]1CSSC[C@@H](C(=O)O)NC(=O)[C@@H]2CCCN2C(=O)[C@H](CO)NC1=O | 0.89 | 126
C[C@@H]1NC(=O)[C@@H]2CCCN2C(=O)[C@@H](NC(=O)[C@@H](N)Cc2ccc(O)cc2)CSSC[C@@H](C(=O)O)NC1=O (H-YCPAC-OH; disulfide 2-5) | 0.23 | 14
N[C@@H](Cc1ccc(O)cc1)C(=O)N[C@H]1CSSC[C@@H](C(=O)O)NC(=O)C2CCN(CC2)C1=O (H-YC[Inp]C-OH; disulfide 2-4) | 0.031 | 1.5
C[C@@H]1NC(=O)[C@@H](NC(=O)[C@@H](N)Cc2ccc(O)cc2)CSSC[C@@H](C(=O)O)NC(=O)[C@H](Cc2ccccc2)NC1=O (H-YCAFC-OH; disulfide 2-5) | 2.8 | 182
N[C@@H](Cc1ccc(O)cc1)C(=O)N[C@H]1CSSC[C@@H](C(=O)O)NC(=O)CCCCNC1=O (H-YC[Ava]C-OH; disulfide 2-4) | 0.41 | 17
CC(=O)N[C@@H](Cc1ccc(O)cc1)C(=O)N[C@H]1CSSC[C@@H](C(N)=O)NC(=O)[C@@H]2CCCN2C(=O)[C@H](C)NC1=O (Ac-YCAPC-NH2; disulfide 2-5) | 0.32 | –
N[C@@H](Cc1cccc(O)c1)C(=O)N[C@H]1CSSC[C@@H](C(=O)O)NC(=O)[C@@H]2CCCN2C(=O)[C@H](CO)NC1=O (H-[mTyr]CSPC-OH; disulfide 2-5) | 0.25 | 25
NC(N)=NCCC[C@H](NC(=O)[C@@H](N)Cc1ccc(O)cc1)C(=O)N[C@H]1CSSC[C@@H](C(=O)O)NC(=O)[C@@H]2CCCN2C(=O)[C@H](CC(=O)O)NC1=O (H-YRCDPC-OH; disulfide 3-6) | 0.11 | 6
O=C(N[C@H]1CSSC[C@@H](C(=O)O)NC(=O)[C@@H]2CCCN2C(=O)[C@H](CO)NC1=O)C1CCNCC1 (H-[Inp]CSPC-OH; disulfide 2-5) | 4.6 | 50
N[C@@H](Cc1ccc(O)c(F)c1)C(=O)N[C@H]1CSSC[C@@H](C(=O)O)NC(=O)[C@@H]2CCCN2C(=O)[C@H](CO)NC1=O (H-[Tyr(3-F)]CSPC-OH; disulfide 2-5) | 0.008 | 0.5
N[C@@H](Cc1ccc(O)cc1)C(=O)N[C@H]1CSSC[C@@H](C(=O)O)NC(=O)[C@H](C2CCCCC2)NC1=O (H-YC[Chg]C-OH; disulfide 2-4) | 115 | –
CC(=O)N[C@@H](Cc1ccc(O)cc1)C(=O)N[C@H]1CSSC[C@@H](C(=O)O)NC(=O)CN(C)C(=O)[C@H](C)NC1=O (Ac-YCA[Sar]C-OH; disulfide 2-5) | 0.71 | –
C[C@@H]1NC(=O)[C@@H](NC(=O)[C@@H](N)Cc2ccc(O)cc2)CSSC[C@@H](C(=O)O)NC(=O)[C@@H]2CC3CCCCC3N2C1=O (stereo partly specified) (H-YCA[Oic(3aξ,7aξ)]C-OH; disulfide 2-5) | 0.02 | 4.7
NC(=O)[C@@H]1CSSC[C@H](NC(=O)[C@@H](N)CCCN=C(N)N)C(=O)N[C@@H](CC(=O)O)C(=O)N2CCC[C@H]2C(=O)N1 (H-RCDPC-NH2; disulfide 2-5) | 50 | –
O=C(N[C@H]1CSSC[C@@H](C(=O)O)NC(=O)[C@@H]2CCCN2C(=O)[C@H](CO)NC1=O)c1ccc(-c2ccc(O)cc2)cc1 (X4-CSPC-OH; disulfide 1-4) | 1.65 | 120
CC(=O)N[C@@H](Cc1ccc(O)cc1)C(=O)N[C@H]1CSSC[C@@H](C(=O)O)NC(=O)[C@@H]2CCCN2C(=O)[C@H](Cc2ccc(O)cc2)NC1=O (Ac-YCYPC-OH; disulfide 2-5) | 0.003 | 0.23
N[C@@H](Cc1ccc(O)c(Cl)c1)C(=O)N[C@H]1CSSC[C@@H](C(=O)O)NC(=O)[C@@H]2CCCN2C(=O)[C@H](CO)NC1=O (H-[Tyr(3-Cl)]CSPC-OH; disulfide 2-5) | 0.007 | 0.6
C[C@@H]1NC(=O)[C@@H](NC(=O)[C@H](CCCN=C(N)N)NC(=O)[C@@H](N)Cc2ccc(O)cc2)CSSC[C@@H](C(=O)O)NC(=O)[C@@H]2CCCN2C1=O (H-YRCAPC-OH; disulfide 3-6) | 0.06 | 8
N[C@@H](Cc1ccc(O)cc1)C(=O)N[C@H]1CSSC[C@@H](C(=O)O)NC(=O)c2cccc(c2)CNC1=O (H-YC[3Amb]C-OH; disulfide 2-4) | 6 | 210
NCCCC[C@H](N)C(=O)N[C@H]1CSSC[C@@H](C(=O)O)NC(=O)[C@@H]2CCCN2C(=O)[C@H](CC(=O)O)NC1=O (H-KCDPC-OH; disulfide 2-5) | 250 | 1000
CC(=O)N[C@@H](Cc1ccc(O)cc1)C(=O)N[C@H]1CSSC[C@@H](C(=O)O)NC(=O)[C@@H]2CCCN2C(=O)[C@H](CO)NC1=O (Ac-YCSPC-OH; disulfide 2-5) | 0.002 | 0.12

SMILES | IC50 (Integrin alpha-4/beta-1 [1]) [µM] | IC50 (Integrin alpha-4/beta-1 [2]) [µM]
N[C@@H](Cc1ccc(O)cc1)C(=O)N[C@H]1CSSC[C@@H](C(=O)O)NC(=O)CCCNC1=O (H-YC[GABA]C-OH; disulfide 2-4) | 0.038 | 1
N[C@@H](Cc1ccc(O)cc1)C(=O)N[C@H]1CSSC[C@@H](C(=O)O)NC(=O)C2CCC(CC2)CNC1=O | 0.1 | 19
NC(N)=NCCC[C@H](NC(=O)[C@@H](N)Cc1ccccc1)C(=O)N[C@H]1CSSC[C@@H](C(=O)O)NC(=O)[C@@H]2CCCN2C(=O)[C@H](CC(=O)O)NC1=O (H-FRCDPC-OH; disulfide 3-6) | 2.1 | 100
CC(C)C[C@@H]1NC(=O)[C@H](C)NC(=O)[C@@H](NC(=O)[C@@H](N)Cc2ccc(O)cc2)CSSC[C@@H](C(=O)O)NC1=O (H-YCALC-OH; disulfide 2-5) | 0.034 | 10.5
O=C(N[C@H]1CSSC[C@@H](C(=O)O)NC(=O)[C@@H]2CCCN2C(=O)[C@H](CO)NC1=O)c1cccc2c1Cc1ccccc1-2 ({Fluorene(1-CO)}-CSPC-OH; disulfide 1-4) | 0.14 | 1.5
CC(=O)N[C@@H](Cc1ccc(O)cc1)C(=O)N[C@H]1CSSC[C@@H](C(=O)O)NC(=O)[C@@H]2CCCN2C(=O)[C@H]([C@@H](C)O)NC1=O (Ac-YCTPC-OH; disulfide 2-5) | 0.005 | 0.32
C[C@@H]1NC(=O)[C@@H](NC(=O)[C@@H](N)Cc2ccc(O)cc2)CSSC[C@@H](C(=O)O)NC(=O)[C@@H]2C[C@@H](O)CN2C1=O (H-YCA[Hyp]C-OH; disulfide 2-5) | 0.005 | –
C[C@H](NC(=O)[C@@H](N)Cc1ccc(O)cc1)C(=O)N[C@H]1CSSC[C@@H](C(=O)O)NC(=O)[C@@H]2CCCN2C(=O)[C@H](CC(=O)O)NC1=O (H-YACDPC-OH; disulfide 3-6) | 0.21 | 5
N[C@@H](Cc1c(F)c(F)c(O)c(F)c1F)C(=O)N[C@H]1CSSC[C@@H](C(=O)O)NC(=O)[C@@H]2CCCN2C(=O)[C@H](CO)NC1=O (H-[X5]CSPC-OH; disulfide 2-5) | 0.53 | 60
C[C@@H]1NC(=O)[C@@H](NC(=O)[C@@H](N)Cc2ccc(O)cc2)CSSC[C@@H](C(=O)O)NC(=O)[C@@H]2CCCN2C1=O (H-YCAPC-OH; disulfide 2-5) | 0.005 | 0.12
N[C@@H](Cc1ccc(O)c(I)c1)C(=O)N[C@H]1CSSC[C@@H](C(=O)O)NC(=O)[C@@H]2CCCN2C(=O)[C@H](CO)NC1=O (H-[Tyr(3-I)]CSPC-OH; disulfide 2-5) | 0.004 | 0.2
NC(=O)[C@@H]1CSSC[C@H](NC(=O)[C@@H](N)Cc2ccc(O)cc2)C(=O)Nc2cccc(c2)C(=O)N1 (H-YC[3Abz]C-NH2; disulfide 2-4) | 12 | –
CC(=O)N1CC[C@H](c2ccc(O)cc2)[C@@H]1C(=O)N[C@H]1CSSC[C@@H](C(=O)O)NC(=O)[C@@H]2CCCN2C(=O)[C@H](CO)NC1=O (Ac-[X7]CSPC-OH; disulfide 2-5) | 0.004 | –
N[C@@H](Cc1ccc(O)cc1)C(=O)N[C@H]1CSSC[C@@H](C(=O)O)NC(=O)c2ccccc2NC1=O (H-YC[2Abz]C-OH; disulfide 2-4) | 1.3 | 80
N=C(N)NCCC[C@H](NC(=O)[C@@H](N)Cc1c[nH]c2ccccc12)C(=O)N[C@H]1CSSC[C@@H](C(=O)O)NC(=O)[C@@H]2CCCN2C(=O)[C@H](CC(=O)O)NC1=O (H-WRCDPC-OH; disulfide 3-6) | 1.2 | 100
CC(=O)N1CC[C@@H](c2ccc(O)cc2)[C@@H]1C(=O)N[C@H]1CSSC[C@@H](C(=O)O)NC(=O)[C@@H]2CCCN2C(=O)[C@H](CO)NC1=O (Ac-[X3]CSPC-OH; disulfide 2-5) | 0.0005 | 0.008
C[C@@H]1NC(=O)[C@@H](NC(=O)[C@@H](N)Cc2ccc(O)cc2)CSSC[C@@H](C(=O)O)NC(=O)[C@H](C2CCCCC2)NC1=O (H-YCA[Chg]C-OH; disulfide 2-5) | 0.23 | –
CC(=O)N[C@@H](Cc1ccc(O)cc1)C(=O)N[C@H]1CSSC[C@@H](C(=O)O)NC(=O)CNC(=O)[C@H](C)NC1=O (Ac-YCAGC-OH; disulfide 2-5) | 22 | –
N[C@@H](Cc1ccc(O)cc1)C(=O)N[C@H]1CSSC[C@@H](C(=O)O)NC(=O)[C@H](CC2CCCCC2)NC1=O (H-YC[Cha]C-OH; disulfide 2-4) | 18 | –
C[C@@H]1NC(=O)[C@@H](NC(=O)[C@@H](N)Cc2ccc(O)cc2)CSSC[C@@H](C(=O)O)NC(=O)C2(Cc3ccccc3C2)NC1=O (H-YCA[Aic]C-OH; disulfide 2-5) | 36 | –
